Numbers after ± are expanded uncertainties.
Test: xn = mol fraction of the nth substance listed
Details: Liquid

COCCOCCOCCOC [2,5,8,11-tetraoxadodecane] + FCC(F)(F)F
Details	mass density [kg/m3]
283.27 K, 1086 kPa, x2 = 0.9485	1245.33 ± 0.38
283.27 K, 2000 kPa, x2 = 0.9485	1248.44 ± 0.39
283.27 K, 3016 kPa, x2 = 0.9485	1251.83 ± 0.39
283.27 K, 4003 kPa, x2 = 0.9485	1255.03 ± 0.4
283.27 K, 5009 kPa, x2 = 0.9485	1258.22 ± 0.4
283.27 K, 6019 kPa, x2 = 0.9485	1261.33 ± 0.41
283.28 K, 1070 kPa, x2 = 0.9798	1255.94 ± 0.37
283.28 K, 1986 kPa, x2 = 0.9798	1259.56 ± 0.37
283.28 K, 2984 kPa, x2 = 0.9798	1263.39 ± 0.38
283.28 K, 4004 kPa, x2 = 0.9798	1267.2 ± 0.38
283.28 K, 4996 kPa, x2 = 0.9798	1270.8 ± 0.38
283.28 K, 5989 kPa, x2 = 0.9798	1274.3 ± 0.39
283.29 K, 1047 kPa, x2 = 0.9655	1251.56 ± 0.38
283.29 K, 1992 kPa, x2 = 0.9655	1255.06 ± 0.38
283.29 K, 2996 kPa, x2 = 0.9655	1258.69 ± 0.39
283.29 K, 3988 kPa, x2 = 0.9655	1262.16 ± 0.39
283.29 K, 4999 kPa, x2 = 0.9655	1265.62 ± 0.39
283.29 K, 5987 kPa, x2 = 0.9655	1268.91 ± 0.4
293.3 K, 1086 kPa, x2 = 0.9485	1215.38 ± 0.37
293.3 K, 2016 kPa, x2 = 0.9485	1219.06 ± 0.37
293.3 K, 2998 kPa, x2 = 0.9485	1222.84 ± 0.37
293.3 K, 3985 kPa, x2 = 0.9485	1226.51 ± 0.38
293.3 K, 5000 kPa, x2 = 0.9485	1230.18 ± 0.38
293.3 K, 6018 kPa, x2 = 0.9485	1233.75 ± 0.39
293.31 K, 1086 kPa, x2 = 0.9798	1222.61 ± 0.34
293.31 K, 2003 kPa, x2 = 0.9798	1226.87 ± 0.35
293.31 K, 2985 kPa, x2 = 0.9798	1231.29 ± 0.35
293.31 K, 4010 kPa, x2 = 0.9798	1235.72 ± 0.36
293.31 K, 4992 kPa, x2 = 0.9798	1239.84 ± 0.36
293.31 K, 6009 kPa, x2 = 0.9798	1243.96 ± 0.36
293.32 K, 1047 kPa, x2 = 0.9655	1219.81 ± 0.36
293.32 K, 2002 kPa, x2 = 0.9655	1223.94 ± 0.36
293.32 K, 2997 kPa, x2 = 0.9655	1228.11 ± 0.36
293.32 K, 3984 kPa, x2 = 0.9655	1232.11 ± 0.37
293.32 K, 5001 kPa, x2 = 0.9655	1236.1 ± 0.37
293.32 K, 5994 kPa, x2 = 0.9655	1239.88 ± 0.38
303.33 K, 1176 kPa, x2 = 0.9798	1187.73 ± 0.34
303.33 K, 1189 kPa, x2 = 0.9485	1184.28 ± 0.34
303.33 K, 1998 kPa, x2 = 0.9485	1188.03 ± 0.35
303.33 K, 2990 kPa, x2 = 0.9485	1192.49 ± 0.36
303.33 K, 3984 kPa, x2 = 0.9485	1196.79 ± 0.36
303.33 K, 5011 kPa, x2 = 0.9485	1201.05 ± 0.36
303.33 K, 5992 kPa, x2 = 0.9485	1205.02 ± 0.37
303.34 K, 2006 kPa, x2 = 0.9798	1192.33 ± 0.34
303.34 K, 3006 kPa, x2 = 0.9798	1197.65 ± 0.34
303.34 K, 4000 kPa, x2 = 0.9798	1202.73 ± 0.34
303.34 K, 4990 kPa, x2 = 0.9798	1207.56 ± 0.35
303.34 K, 6008 kPa, x2 = 0.9798	1212.35 ± 0.35
303.35 K, 1189 kPa, x2 = 0.9655	1186.88 ± 0.34
303.35 K, 2013 kPa, x2 = 0.9655	1191.11 ± 0.35
303.35 K, 2992 kPa, x2 = 0.9655	1195.95 ± 0.35
303.35 K, 4008 kPa, x2 = 0.9655	1200.76 ± 0.35
303.35 K, 4992 kPa, x2 = 0.9655	1205.25 ± 0.36
303.35 K, 5987 kPa, x2 = 0.9655	1209.62 ± 0.36
313.35 K, 1434 kPa, x2 = 0.9485	1152.06 ± 0.34
313.35 K, 1434 kPa, x2 = 0.9798	1151.46 ± 0.34
313.35 K, 2004 kPa, x2 = 0.9798	1155.29 ± 0.35
313.35 K, 2014 kPa, x2 = 0.9485	1155.26 ± 0.34
313.35 K, 2982 kPa, x2 = 0.9798	1161.59 ± 0.34
313.35 K, 2990 kPa, x2 = 0.9485	1160.47 ± 0.34
313.35 K, 3990 kPa, x2 = 0.9485	1165.56 ± 0.35
313.35 K, 4985 kPa, x2 = 0.9485	1170.41 ± 0.35
313.35 K, 4986 kPa, x2 = 0.9798	1173.51 ± 0.34
313.35 K, 5997 kPa, x2 = 0.9485	1175.14 ± 0.35
313.36 K, 1436 kPa, x2 = 0.9655	1152.44 ± 0.34
313.36 K, 3010 kPa, x2 = 0.9655	1161.91 ± 0.34
313.36 K, 3986 kPa, x2 = 0.9798	1167.71 ± 0.34
313.36 K, 5983 kPa, x2 = 0.9798	1179.03 ± 0.34
313.37 K, 2008 kPa, x2 = 0.9655	1155.97 ± 0.34
313.37 K, 4000 kPa, x2 = 0.9655	1167.49 ± 0.34
313.37 K, 5010 kPa, x2 = 0.9655	1172.9 ± 0.34
313.37 K, 5984 kPa, x2 = 0.9655	1177.91 ± 0.35
323.39 K, 1731 kPa, x2 = 0.9798	1112.96 ± 0.36
323.39 K, 1737 kPa, x2 = 0.9485	1118.26 ± 0.35
323.39 K, 1989 kPa, x2 = 0.9798	1115.09 ± 0.36
323.39 K, 1994 kPa, x2 = 0.9485	1119.99 ± 0.34
323.39 K, 3007 kPa, x2 = 0.9485	1126.53 ± 0.34
323.39 K, 3987 kPa, x2 = 0.9485	1132.49 ± 0.34
323.39 K, 4990 kPa, x2 = 0.9485	1138.29 ± 0.34
323.39 K, 5982 kPa, x2 = 0.9485	1143.72 ± 0.34
323.4 K, 3001 kPa, x2 = 0.9798	1123.14 ± 0.36
323.4 K, 4006 kPa, x2 = 0.9798	1130.6 ± 0.35
323.4 K, 4997 kPa, x2 = 0.9798	1137.51 ± 0.35
323.4 K, 5982 kPa, x2 = 0.9798	1144 ± 0.34
323.41 K, 1737 kPa, x2 = 0.9655	1116.04 ± 0.35
323.41 K, 1998 kPa, x2 = 0.9655	1118.03 ± 0.35
323.41 K, 3002 kPa, x2 = 0.9655	1125.33 ± 0.35
323.41 K, 4001 kPa, x2 = 0.9655	1132.15 ± 0.34
323.41 K, 4985 kPa, x2 = 0.9655	1138.48 ± 0.34
323.41 K, 6012 kPa, x2 = 0.9655	1144.72 ± 0.34

From the NIST ThermoML archive (doi:10.1021/je050503q)
